Results on one compound are retold here after patent publication US9816998B2, “Circulating exosomes as diagnostic/prognostic indicators and therapeutic targets of melanoma and other cancers” (Cornell University, priority 2011, dated 2017).

The test system of this test is HGF/MET signaling. As to the kind of experiment: BM cell response to HGF after exosome pre-treatment: western blot of phospho-S6 kinase and phospho-ERK. In kind it is cell-based, mice. Particulars: 20 nM, before HGF addition. Background: In western blotting, separated proteins are transferred to a membrane and probed.

Text: Mice were sacrificed and BM was isolated by flushing the femur and tibia with staining media (1% BSA in PBS) using a 25G½″ needle (BD) and further disrupting it by pipeting. Cell suspensions were filtered through 70 μm cell strainers (BD) prior to centrifugation. Red blood cells (RBC) from BM suspensions were lysed using ACK Lysis Buffer (Invitrogen). To enrich for progenitors, lineage positive (Lin^+, i.e., CD5, CD45R, CD19, CD11b, Ly6G/C, 7-4, TER119 positive) BM cells were immunomagnetically depleted using the EasySep® Mouse Hematopoietic Progenitor Cell Enrichment Kit (Stem Cell Technologies) as per manufacturer's instructions. For in vitro BM treatment with exosomes, BM cells were flushed as above and cultured in Stem Span (Stem Cell Technologies) for 16 hours in the presence or absence of 20 μg/ml indicated exosomes. For HGF analysis BM cells were then stimulated with 5 ng/ml HGF (Peprotech) for 4 hours and collected for Western blot analysis in RIPA buffer as indicated below by adding phosphatase inhibitors (1 mM Sodium orthovanadate and 5 mM β-Glycerol phosphate). For MET signaling inhibition, cells were incubated with 20 nM Crizotinib (Selleck Bio) 1 hour before HGF stimulation.
Exosomes or cells were lysed with RIPA buffer containing a complete protease inhibitor tablet (Roche). Lysates were cleared by centrifugation at 14,000×g for 20 min. […]

As to `C[C@@H](Oc1cc(-c2cnn(C3CCNCC3)c2)cnc1N)c1c(Cl)ccc(F)c1Cl` [Crizotinib], the “Phosphorylation of ERK after F10 exosome treatment” value is reported as “blocked the phosphorylation” and the “Phosphorylation of S6-kinase after F10 exosome treatment” value was “blocked the phosphorylation”.
